According to PMC11864979, “First-in-class ultralong-target-residence-time p38α inhibitors as a mitosis-targeted therapy for colorectal cancer” (Nature Cancer, 2025):
Where two headings read alike, the source gives them in different places.

Columns and labels:
Assay in all cases: selectivity profiling in a panel of 340 wild-type kinases (Reaction Biology Europe)
Type in all cases: binding
[1] = target: T1, 340 wild-type kinases (Homo sapiens, UniProt O43353)
T1 construct: purchased Reaction Biology Europe

[2] = target: T2, 340 wild-type kinases (Homo sapiens, UniProt O75914)
T2 construct: purchased Reaction Biology Europe

[3] = target: T3, 340 wild-type kinases (Homo sapiens, UniProt P17948)
T3 construct: purchased Reaction Biology Europe

[4] = target: T4, 340 wild-type kinases (Homo sapiens, UniProt P35626)
T4 construct: purchased Reaction Biology Europe
T4 sequence (P35626 1-688): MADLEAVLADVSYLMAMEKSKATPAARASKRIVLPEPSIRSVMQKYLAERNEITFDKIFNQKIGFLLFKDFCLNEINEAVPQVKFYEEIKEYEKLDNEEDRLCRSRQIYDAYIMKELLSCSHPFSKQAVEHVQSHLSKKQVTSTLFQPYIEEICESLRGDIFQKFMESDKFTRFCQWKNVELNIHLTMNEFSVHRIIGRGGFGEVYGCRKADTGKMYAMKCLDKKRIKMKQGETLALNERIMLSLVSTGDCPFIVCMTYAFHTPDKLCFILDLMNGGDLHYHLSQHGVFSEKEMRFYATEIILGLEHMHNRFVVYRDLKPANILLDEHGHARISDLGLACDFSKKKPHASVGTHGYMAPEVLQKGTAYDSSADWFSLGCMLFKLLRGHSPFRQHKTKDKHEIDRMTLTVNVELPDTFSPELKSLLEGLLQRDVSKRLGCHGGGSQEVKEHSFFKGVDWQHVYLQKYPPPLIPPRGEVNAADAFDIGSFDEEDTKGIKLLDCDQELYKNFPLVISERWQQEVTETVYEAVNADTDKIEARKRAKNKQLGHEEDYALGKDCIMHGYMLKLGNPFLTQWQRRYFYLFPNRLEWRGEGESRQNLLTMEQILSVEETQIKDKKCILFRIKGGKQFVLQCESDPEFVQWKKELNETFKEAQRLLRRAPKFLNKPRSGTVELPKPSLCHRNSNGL

[5] = target: T5, 340 wild-type kinases (Homo sapiens, UniProt P48729)
T5 construct: purchased Reaction Biology Europe

[6] = target: T6, 340 wild-type kinases (Homo sapiens, UniProt P49761)
T6 construct: purchased Reaction Biology Europe

[7] = target: T7, 340 wild-type kinases (Homo sapiens, UniProt Q06187)
T7 construct: purchased Reaction Biology Europe

[8] = target: T8, 340 wild-type kinases (Homo sapiens, UniProt Q14004)
T8 construct: purchased Reaction Biology Europe

[9] = target: T9, 340 wild-type kinases (Homo sapiens, UniProt Q8IW41)
T9 construct: purchased Reaction Biology Europe
T9 sequence (Q8IW41 1-473): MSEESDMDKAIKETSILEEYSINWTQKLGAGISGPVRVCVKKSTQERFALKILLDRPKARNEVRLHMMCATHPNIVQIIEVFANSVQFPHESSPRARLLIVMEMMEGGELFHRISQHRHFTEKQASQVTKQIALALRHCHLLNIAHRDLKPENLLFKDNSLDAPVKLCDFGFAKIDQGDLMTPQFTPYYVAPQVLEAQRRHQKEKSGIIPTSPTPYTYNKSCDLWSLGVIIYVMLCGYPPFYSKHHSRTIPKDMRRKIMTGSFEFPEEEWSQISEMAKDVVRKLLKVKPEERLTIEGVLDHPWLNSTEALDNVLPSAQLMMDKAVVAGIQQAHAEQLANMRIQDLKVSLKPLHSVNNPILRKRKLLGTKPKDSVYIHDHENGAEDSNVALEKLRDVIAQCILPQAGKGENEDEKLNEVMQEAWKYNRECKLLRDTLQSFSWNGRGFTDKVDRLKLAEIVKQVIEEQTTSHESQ

[10] = target: T10, 340 wild-type kinases (Homo sapiens, UniProt Q8NE63)
T10 construct: purchased Reaction Biology Europe
T10 sequence (Q8NE63 1-616): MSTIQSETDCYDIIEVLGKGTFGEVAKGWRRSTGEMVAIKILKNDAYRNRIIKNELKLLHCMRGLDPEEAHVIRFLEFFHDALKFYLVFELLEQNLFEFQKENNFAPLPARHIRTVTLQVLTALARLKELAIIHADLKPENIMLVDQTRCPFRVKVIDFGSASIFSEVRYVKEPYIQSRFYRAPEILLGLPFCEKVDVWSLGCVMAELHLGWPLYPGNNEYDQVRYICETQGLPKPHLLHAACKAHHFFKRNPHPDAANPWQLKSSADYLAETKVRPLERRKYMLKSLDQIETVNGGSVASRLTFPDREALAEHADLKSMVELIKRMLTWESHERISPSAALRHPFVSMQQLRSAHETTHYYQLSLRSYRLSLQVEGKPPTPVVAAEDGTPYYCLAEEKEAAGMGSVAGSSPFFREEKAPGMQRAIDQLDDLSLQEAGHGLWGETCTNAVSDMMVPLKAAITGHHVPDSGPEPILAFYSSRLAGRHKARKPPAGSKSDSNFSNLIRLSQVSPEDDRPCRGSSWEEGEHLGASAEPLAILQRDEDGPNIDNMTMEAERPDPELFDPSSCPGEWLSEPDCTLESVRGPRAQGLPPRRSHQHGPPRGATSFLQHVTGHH

[11] = read-out: CDK13/CycK residual activity

T1 sequence (O43353 whole entry): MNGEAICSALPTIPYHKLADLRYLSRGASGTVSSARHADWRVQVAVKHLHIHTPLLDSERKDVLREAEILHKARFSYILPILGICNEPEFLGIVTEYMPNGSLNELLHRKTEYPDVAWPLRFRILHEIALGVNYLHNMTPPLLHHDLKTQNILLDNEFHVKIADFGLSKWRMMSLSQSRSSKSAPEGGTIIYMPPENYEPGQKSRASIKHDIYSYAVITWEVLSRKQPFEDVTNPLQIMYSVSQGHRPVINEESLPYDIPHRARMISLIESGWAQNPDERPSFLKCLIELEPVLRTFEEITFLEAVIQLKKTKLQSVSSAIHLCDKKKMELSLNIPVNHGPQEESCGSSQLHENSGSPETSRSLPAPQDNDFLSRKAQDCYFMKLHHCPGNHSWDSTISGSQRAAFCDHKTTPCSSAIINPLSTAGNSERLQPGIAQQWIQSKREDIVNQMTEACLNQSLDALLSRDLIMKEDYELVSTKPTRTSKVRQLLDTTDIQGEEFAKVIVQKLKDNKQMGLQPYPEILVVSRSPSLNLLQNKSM
T8 sequence (Q14004 whole entry): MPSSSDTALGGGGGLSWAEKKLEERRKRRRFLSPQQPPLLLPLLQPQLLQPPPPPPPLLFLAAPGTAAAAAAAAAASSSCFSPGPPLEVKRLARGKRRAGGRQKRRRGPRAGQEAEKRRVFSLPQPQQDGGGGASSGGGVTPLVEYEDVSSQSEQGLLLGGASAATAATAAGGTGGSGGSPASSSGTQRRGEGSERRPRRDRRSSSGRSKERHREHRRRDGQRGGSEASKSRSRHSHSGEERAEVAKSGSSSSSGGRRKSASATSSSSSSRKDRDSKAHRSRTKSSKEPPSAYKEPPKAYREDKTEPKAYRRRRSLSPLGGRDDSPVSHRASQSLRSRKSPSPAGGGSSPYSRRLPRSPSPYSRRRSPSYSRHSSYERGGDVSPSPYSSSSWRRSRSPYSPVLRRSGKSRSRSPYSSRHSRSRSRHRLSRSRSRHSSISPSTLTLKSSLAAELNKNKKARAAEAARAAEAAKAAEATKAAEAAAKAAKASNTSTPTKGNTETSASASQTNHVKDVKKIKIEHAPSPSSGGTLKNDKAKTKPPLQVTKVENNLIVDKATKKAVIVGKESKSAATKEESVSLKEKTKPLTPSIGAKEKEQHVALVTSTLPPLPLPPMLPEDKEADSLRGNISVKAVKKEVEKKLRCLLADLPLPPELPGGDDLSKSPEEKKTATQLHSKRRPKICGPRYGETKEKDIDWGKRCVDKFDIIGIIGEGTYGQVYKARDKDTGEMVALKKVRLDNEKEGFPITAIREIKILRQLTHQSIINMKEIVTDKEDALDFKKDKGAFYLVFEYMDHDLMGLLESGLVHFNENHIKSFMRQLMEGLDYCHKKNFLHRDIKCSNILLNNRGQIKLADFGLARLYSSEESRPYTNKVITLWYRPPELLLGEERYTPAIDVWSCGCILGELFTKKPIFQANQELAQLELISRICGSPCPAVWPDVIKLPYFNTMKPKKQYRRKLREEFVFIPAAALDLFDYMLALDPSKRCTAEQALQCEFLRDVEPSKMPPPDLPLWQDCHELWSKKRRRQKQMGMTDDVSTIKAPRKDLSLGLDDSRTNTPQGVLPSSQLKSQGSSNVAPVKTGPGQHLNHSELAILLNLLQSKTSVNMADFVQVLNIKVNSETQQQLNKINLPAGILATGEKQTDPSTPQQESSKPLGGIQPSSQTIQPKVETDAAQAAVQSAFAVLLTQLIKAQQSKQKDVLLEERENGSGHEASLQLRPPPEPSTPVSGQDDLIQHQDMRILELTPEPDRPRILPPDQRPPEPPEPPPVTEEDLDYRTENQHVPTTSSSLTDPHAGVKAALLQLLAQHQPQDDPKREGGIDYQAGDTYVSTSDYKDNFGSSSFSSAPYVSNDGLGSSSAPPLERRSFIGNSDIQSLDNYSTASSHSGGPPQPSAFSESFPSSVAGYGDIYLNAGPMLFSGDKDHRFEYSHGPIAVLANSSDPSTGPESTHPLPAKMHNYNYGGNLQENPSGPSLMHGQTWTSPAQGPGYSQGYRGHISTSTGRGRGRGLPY
T3 sequence (P17948 27-1338): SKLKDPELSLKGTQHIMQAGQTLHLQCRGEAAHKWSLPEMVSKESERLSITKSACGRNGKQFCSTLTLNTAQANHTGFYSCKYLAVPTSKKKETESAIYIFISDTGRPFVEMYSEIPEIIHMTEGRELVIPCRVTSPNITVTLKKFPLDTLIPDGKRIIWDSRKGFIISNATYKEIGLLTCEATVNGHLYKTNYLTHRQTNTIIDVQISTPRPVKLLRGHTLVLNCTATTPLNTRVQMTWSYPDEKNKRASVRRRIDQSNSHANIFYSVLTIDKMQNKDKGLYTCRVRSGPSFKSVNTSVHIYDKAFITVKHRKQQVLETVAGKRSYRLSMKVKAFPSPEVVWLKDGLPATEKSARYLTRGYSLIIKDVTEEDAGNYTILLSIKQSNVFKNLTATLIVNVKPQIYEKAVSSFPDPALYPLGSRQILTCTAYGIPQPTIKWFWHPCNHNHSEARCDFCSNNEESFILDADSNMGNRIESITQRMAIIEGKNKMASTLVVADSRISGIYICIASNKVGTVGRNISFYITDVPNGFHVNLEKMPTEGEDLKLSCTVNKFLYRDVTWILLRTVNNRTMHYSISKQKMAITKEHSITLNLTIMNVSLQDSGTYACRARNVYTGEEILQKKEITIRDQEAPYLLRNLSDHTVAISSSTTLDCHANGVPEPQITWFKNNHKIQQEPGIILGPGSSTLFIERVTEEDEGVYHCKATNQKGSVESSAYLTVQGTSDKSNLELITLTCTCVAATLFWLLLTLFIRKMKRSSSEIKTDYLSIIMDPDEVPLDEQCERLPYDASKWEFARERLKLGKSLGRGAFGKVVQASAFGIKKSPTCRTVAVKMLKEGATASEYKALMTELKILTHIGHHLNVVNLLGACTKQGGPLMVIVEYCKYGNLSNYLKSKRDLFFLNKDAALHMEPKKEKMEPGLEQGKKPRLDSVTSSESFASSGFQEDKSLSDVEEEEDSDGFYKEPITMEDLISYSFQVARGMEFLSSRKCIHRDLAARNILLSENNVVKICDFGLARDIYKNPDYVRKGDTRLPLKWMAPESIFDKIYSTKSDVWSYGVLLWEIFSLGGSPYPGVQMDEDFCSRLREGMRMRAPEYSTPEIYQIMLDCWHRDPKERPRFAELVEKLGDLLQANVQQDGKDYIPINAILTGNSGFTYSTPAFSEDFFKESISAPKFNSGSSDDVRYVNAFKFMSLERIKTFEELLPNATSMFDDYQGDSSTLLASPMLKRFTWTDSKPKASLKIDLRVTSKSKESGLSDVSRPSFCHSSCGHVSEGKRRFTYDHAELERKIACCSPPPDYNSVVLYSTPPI
T2 sequence (O75914 whole entry): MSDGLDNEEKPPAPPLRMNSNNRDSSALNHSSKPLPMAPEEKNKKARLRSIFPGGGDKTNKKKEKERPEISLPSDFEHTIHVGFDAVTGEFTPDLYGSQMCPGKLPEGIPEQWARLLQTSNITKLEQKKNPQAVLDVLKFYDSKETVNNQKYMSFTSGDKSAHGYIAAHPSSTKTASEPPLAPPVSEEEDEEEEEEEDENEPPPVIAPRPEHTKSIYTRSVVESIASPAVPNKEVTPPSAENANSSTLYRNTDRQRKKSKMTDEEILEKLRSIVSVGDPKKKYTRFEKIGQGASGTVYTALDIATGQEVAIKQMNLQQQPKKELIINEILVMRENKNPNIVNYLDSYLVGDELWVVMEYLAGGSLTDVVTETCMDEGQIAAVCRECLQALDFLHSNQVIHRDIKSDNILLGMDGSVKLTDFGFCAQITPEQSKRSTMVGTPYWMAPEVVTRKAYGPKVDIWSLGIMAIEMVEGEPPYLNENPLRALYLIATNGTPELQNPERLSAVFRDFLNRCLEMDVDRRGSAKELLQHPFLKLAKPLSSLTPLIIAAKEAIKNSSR
T6 sequence (P49761 whole entry): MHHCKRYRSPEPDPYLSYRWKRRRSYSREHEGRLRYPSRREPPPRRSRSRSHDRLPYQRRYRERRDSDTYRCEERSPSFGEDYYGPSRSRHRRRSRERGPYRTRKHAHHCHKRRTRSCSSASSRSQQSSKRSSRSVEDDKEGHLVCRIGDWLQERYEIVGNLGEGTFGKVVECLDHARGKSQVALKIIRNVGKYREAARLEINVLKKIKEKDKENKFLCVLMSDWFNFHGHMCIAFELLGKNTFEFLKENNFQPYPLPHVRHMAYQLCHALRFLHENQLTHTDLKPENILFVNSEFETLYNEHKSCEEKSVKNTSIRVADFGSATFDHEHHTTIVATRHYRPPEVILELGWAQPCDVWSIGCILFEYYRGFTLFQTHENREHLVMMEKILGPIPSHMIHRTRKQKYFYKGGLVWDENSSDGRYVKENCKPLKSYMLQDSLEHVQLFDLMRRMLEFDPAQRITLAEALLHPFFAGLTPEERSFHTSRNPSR
T5 sequence (P48729 whole entry): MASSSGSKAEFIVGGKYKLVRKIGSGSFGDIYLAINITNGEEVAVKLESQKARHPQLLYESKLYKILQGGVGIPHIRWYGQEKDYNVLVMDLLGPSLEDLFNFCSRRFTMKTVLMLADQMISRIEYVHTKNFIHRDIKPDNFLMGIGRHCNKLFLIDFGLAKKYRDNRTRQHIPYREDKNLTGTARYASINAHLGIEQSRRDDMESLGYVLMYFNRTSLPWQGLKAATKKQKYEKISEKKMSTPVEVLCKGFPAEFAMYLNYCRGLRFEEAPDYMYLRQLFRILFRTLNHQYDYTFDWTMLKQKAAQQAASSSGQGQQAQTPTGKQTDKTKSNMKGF

## CNC(=O)c1ccc2c(c1)C(=O)c1ccc(Nc3ccc(F)c(NC(=O)C4CC4)c3)cc1CC2 [Compound 2015]
[1]; 0.2 µM 2015, read-out: RIPK2 residual activity
  remaining activity at 0.2 µM: 73.7%
[1]; 1 µM 2015, read-out: RIPK2 residual activity
  remaining activity at 1 µM: 120%
[1]; RIPK2, 0.2 µM, read-out: residual activity
  remaining activity at 0.2 µM: 73.7%
[1]; RIPK2, 1 µM, read-out: residual activity
  remaining activity at 1 µM: 120%
[2]; 0.2 µM 2015, read-out: PAK3 residual activity
  remaining activity at 0.2 µM: 97.6%
[2]; 1 µM 2015, read-out: PAK3 residual activity
  remaining activity at 1 µM: 96.3%
[2]; PAK3, 0.2 µM, read-out: residual activity
  remaining activity at 0.2 µM: 97.6%
[2]; PAK3, 1 µM, read-out: residual activity
  remaining activity at 1 µM: 96.3%
[3]; 0.2 µM 2015, read-out: VEGFR1 residual activity
  remaining activity at 0.2 µM: 113%
[3]; 1 µM 2015, read-out: VEGFR1 residual activity
  remaining activity at 1 µM: 116%
[3]; VEGFR1, 0.2 µM, read-out: residual activity
  remaining activity at 0.2 µM: 113%
[3]; VEGFR1, 1 µM, read-out: residual activity
  remaining activity at 1 µM: 116%
[4]; 0.2 µM 2015, read-out: GRK3 residual activity
  remaining activity at 0.2 µM: 117%
[4]; 1 µM 2015, read-out: GRK3 residual activity
  remaining activity at 1 µM: 99.7%
[4]; GRK3, 0.2 µM, read-out: residual activity
  remaining activity at 0.2 µM: 117%
[4]; GRK3, 1 µM, read-out: residual activity
  remaining activity at 1 µM: 99.7%
[5]; 0.2 µM 2015, read-out: CK1alpha1 residual activity
  remaining activity at 0.2 µM: 98.6%
[5]; CK1alpha1, 0.2 µM, read-out: residual activity
  remaining activity at 0.2 µM: 98.6%
[5]; CK1alpha1, 1 µM, read-out: residual activity
  remaining activity at 1 µM: 94.9%
[6]; 0.2 µM 2015, read-out: CLK3 residual activity
  remaining activity at 0.2 µM: 138%
[6]; 1 µM 2015, read-out: CLK3 residual activity
  remaining activity at 1 µM: 133%
[6]; CLK3, 0.2 µM, read-out: residual activity
  remaining activity at 0.2 µM: 138%
[6]; CLK3, 1 µM, read-out: residual activity
  remaining activity at 1 µM: 133%
[7]; 0.2 µM 2015, read-out: BTK residual activity
  remaining activity at 0.2 µM: 116%
[7]; 1 µM 2015, read-out: BTK residual activity
  remaining activity at 1 µM: 106%
[7]; BTK, 0.2 µM, read-out: residual activity
  remaining activity at 0.2 µM: 116%
[7]; BTK, 1 µM, read-out: residual activity
  remaining activity at 1 µM: 106%
[8]; [11]
  remaining activity at 0.2 µM: 87.3%
  remaining activity at 1 µM: 86.5%
[8]; read-out: residual activity
  remaining activity at 0.2 µM: 87.3%
  remaining activity at 1 µM: 86.5%
[9]; 0.2 µM 2015, read-out: MAPKAPK5 residual activity
  remaining activity at 0.2 µM: 123%
[9]; 1 µM 2015, read-out: MAPKAPK5 residual activity
  remaining activity at 1 µM: 109%
[9]; MAPKAPK5, 0.2 µM, read-out: residual activity
  remaining activity at 0.2 µM: 123%
[9]; MAPKAPK5, 1 µM, read-out: residual activity
  remaining activity at 1 µM: 109%
[10]; 0.2 µM 2015, read-out: HIPK4 residual activity
  remaining activity at 0.2 µM: 96.4%
[10]; 1 µM 2015, read-out: HIPK4 residual activity
  remaining activity at 1 µM: 95.4%
[10]; HIPK4, 0.2 µM, read-out: residual activity
  remaining activity at 0.2 µM: 96.4%
[10]; HIPK4, 1 µM, read-out: residual activity
  remaining activity at 1 µM: 95.5%
